What was measured:
Format in all cases: biochemical
VhAasS [1] = target: T1, VhAasS (Vibrio harveyi, UniProt Q00IB3); test: UREA-PAGE and mass spectrometry of ACP loading; details: holo-E. coli ACP as acceptor, ATP, MgCl2, pH 8, 37 °C overnight
TTHA0604 = target: T2, TTHA0604 (Thermus thermophilus, UniProt Q5SKN9); test: coupled NADH assay at […] nm; details: decanoic acid, ATP, MgCl2, pH 8 100 mM Tris
T2 sequence (Q5SKN9 1-541): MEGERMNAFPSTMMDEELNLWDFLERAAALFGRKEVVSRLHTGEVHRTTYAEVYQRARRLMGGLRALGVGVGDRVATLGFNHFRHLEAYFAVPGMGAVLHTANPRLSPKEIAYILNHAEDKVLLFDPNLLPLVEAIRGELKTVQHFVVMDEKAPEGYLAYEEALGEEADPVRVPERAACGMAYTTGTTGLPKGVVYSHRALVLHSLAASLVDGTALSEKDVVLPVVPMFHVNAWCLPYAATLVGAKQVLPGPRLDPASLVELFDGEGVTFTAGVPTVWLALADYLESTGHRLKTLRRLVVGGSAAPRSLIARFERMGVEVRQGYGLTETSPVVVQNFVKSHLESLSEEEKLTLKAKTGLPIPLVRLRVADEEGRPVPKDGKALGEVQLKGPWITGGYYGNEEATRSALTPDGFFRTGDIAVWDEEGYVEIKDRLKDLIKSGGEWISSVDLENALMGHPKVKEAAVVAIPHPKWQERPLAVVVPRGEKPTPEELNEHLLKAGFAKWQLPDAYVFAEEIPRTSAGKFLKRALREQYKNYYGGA

Slr1609 = target: T3, Slr1609 (Synechocystis sp. PCC 6803, UniProt P73004); test: coupled NADH assay at […] nm; details: decanoic acid, ATP, MgCl2, pH 8 100 mM Tris
T3 sequence (P73004 1-696): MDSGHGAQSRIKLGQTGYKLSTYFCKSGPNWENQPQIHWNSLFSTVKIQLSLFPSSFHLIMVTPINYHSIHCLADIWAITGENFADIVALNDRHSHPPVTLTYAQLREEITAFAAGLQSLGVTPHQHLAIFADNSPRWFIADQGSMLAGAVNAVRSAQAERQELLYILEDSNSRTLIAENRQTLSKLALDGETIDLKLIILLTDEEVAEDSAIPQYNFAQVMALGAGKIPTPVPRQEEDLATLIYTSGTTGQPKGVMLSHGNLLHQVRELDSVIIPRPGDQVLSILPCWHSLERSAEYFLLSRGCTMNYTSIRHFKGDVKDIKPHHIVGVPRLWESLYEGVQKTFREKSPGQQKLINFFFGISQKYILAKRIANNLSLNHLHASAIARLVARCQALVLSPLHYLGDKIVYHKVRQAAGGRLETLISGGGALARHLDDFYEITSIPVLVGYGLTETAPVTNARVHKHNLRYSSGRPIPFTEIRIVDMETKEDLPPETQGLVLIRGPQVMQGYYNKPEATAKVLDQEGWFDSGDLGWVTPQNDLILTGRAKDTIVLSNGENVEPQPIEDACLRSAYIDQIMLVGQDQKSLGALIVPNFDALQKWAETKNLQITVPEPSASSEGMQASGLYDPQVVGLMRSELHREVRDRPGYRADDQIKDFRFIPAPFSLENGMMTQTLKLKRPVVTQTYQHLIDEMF

VhAasS [2] = target: T1, VhAasS; test: UREA-PAGE of ACP loading; details: holo-E. coli AcpP as acceptor, ATP, MgCl2, DTT, 37 °C overnight

O=C(O)CCCCC(=O)c1ccccc1 [5-benzoylvaleric acid]
UREA-PAGE and mass spectrometry of ACP loading (VhAasS [1]): functionalized fatty acids

CC(C)(COP(=O)(O)OP(=O)(O)OC[C@H]1O[C@@H](n2cnc3c(N)ncnc32)[C@H](O)[C@@H]1OP(=O)(O)O)[C@@H](O)C(=O)NCCC(=O)NCCS [coenzyme A]
coupled NADH assay at 340 nm; DTNB assay of CoA consumption; HPLC-MS (TTHA0604): both TTHA0604 and Slr1609 show acyl-CoA ligase activity | coupled NADH assay at 340 nm; DTNB assay of CoA consumption; HPLC-MS (Slr1609): both TTHA0604 and Slr1609 show acyl-CoA ligase activity

CCCCCCCCCC(=O)O [decanoic acid]
UREA-PAGE of ACP loading (VhAasS [2]): VhAasS showed increased loading over Slr1609, TTHA0604, and AAE15
